US20230054563A1, “COMPOSITION AND METHODS OF MANUFACTURE” (Phoenix Eagle Company Pty Ltd, priority 2019, published 2023)
“Also recorded” adds a separate entry of the source.

B1: pure latex papain: Pure latex papain, reference for specific L-BApNA activity (protein, UniProt P00784 134-345, looked up)
Papain: IPEYVDWRQKGAVTPVKNQGSCGSCWAFSAVVTIEGIIKIRTGNLNEYSEQELLDCDRRSYGCNGGYPWSALQLVAQYGIHYRNTYPYEGVQRYCRSREKGPYAAKTDGVRQVQPYNEGALLYSIANQPVSVVLEAAGKDFQLYRGGIFVGPCGNKVDHAVAAVGYGPNYILIKNSWGTGWGENGYIRIKRGTGNSYGVCGLYTSSFYPVKN

Key:
[1] = test system: cysteine protease(s) and serine protease(s) in OPAL B filtrate; assay: Overlay zymography of OPAL B filtrate with L-BApNA membrane, with or without inhibitors; type: biochemical, Carica papaya; conditions: inhibitor on nitrocellulose membrane; upper band cysteine, lower band serine protease(s)
Experimental: Overlay-zymography was carried out according to the procedure in Vinokurov et al. (2005) with some modifications (FIG. 1). Briefly, a nitrocellulose membrane was soaked in a 1.2 mg/mL L-BApNA solution in water. The membrane was subsequently left to air dry for 5 minutes and then laid on top of the native PAGE gel after running the samples through, which were slightly soaked in their respective running buffers. Two additional experiments were carried out in which membranes were soaked in […] R-alanine, 0.14 M acetic acid, pH 4.3, with either 10 mM DTT or 25 mM cysteine. All zymographies were then incubated in a closed chamber at 37° C. for 30-60 min. The membrane was removed and again left to dry for 5 minutes and the p-nitroaniline was visualized by diazotization.
Diazotization was performed by following the protocol detailed in Hosseininaveh et al. (2009). […]
OPAL B filtrate appears to be a complex mixture of many proteins. Therefore, to individually visualize the protease activities that were detected by spectrophotometry assays, we used a technique called overlay zymography. […]

[2] = test system: active serine protease in OPAL B filtrate; assay: Serine protease reactivity probe, SDS PAGE western blotting of OPAL B filtrate; type: biochemical, Carica papaya
Source text: To establish which of the different bands corresponded to a proteolytically active form of subtilase in the OPAL B filtrate, we used a reactivity probe, which specifically labels active serine proteases via a fluorosulfonate group linked to biotin. This reactivity probe can then be visualized on a regular SDS PAGE gel via western blotting technique, using streptavidin-conjugated enzymes such as alkaline phosphatase. Using this technique allowed the visualization of the active serine protease band inhibited by AEBSF treatment at around 50 kDa as shown in FIG. 11.

[3] = test system: proteolytic activity of OPAL B filtrate (cysteine and serine proteases); assay: Effect of protease inhibitors on L-BApNA proteolytic activity of OPAL B filtrate; type: biochemical, Carica papaya; conditions: inhibitor added to OPAL B filtrate
Experimental: (§1) A 1.5 mM stock solution of L-BApNA (B-3133 sigma) was prepared by dissolving 63 mg of L-BApNA in 1.5 ml dimethyl sulfoxide (DMSO), and then made up to 100 ml with water. Hydrolysis of the L-BApNA at the bond between the arginine and the p-nitroaniline moieties releases the chromophore p-nitroaniline, which can be detected by spectroscopy at an absorbance of 410 nm in International Units (IU). IU is defined as the amount of enzyme that causes an increase in absorbance of 0.01 units/min under excess substrate conditions (zero order kinetics). Solids specific activity is expressed in IU/mg, while in the case of liquid formulations, the activity is expressed in IU/mL.
(§2) We therefore previously concluded that the protease activity in OPAL A is essentially due only to the presence of active cysteine proteases. To determine the effect of omitting the heat treatment step, the protease activity in both OPAL A and OPAL B filtrates was tested using an L-BApNA assay. After 10 minutes, E-64 inhibitor was added.
To better understand the non-thiol dependent or non-cysteine proteases in the OPAL B filtrate, enzymatic assays were carried out initially using a Protease Inhibitor Cocktail (PIC) (sigma P2714), containing all the essential protease inhibitors (see Table 3).

[4] = test system: cysteine protease activity of OPAL A; assay: Effect of E-64 on protease activity of OPAL A; type: biochemical, Carica papaya; conditions: previously established, unpublished data
Experimental: as §2

[5] = L-BApNA proteolytic activity assay (A410); type: biochemical
Experimental: as §1
To determine the optimal substrate concentration to maintain zero order kinetics throughout experiments, a series of titration runs were carried out with a range of substrate concentrations. The minimum concentration thus found is […] or 1:6 dilution of the stock 1.5 mM solution. […] Phosphate buffer at pH 6 was used in the L-BApNA assays because it gave the highest enzymatic activity reading compared to other buffers.
Hydrolysis of L-BApNA in the presence of protease, at the bond between the arginine and p-nitroaniline moieties, releases the chromophore p-nitroaniline, which can then be detected by spectroscopy at a wavelength of 410 nm. […]

Molecule | inhibition of zymography bands of OPAL B [1] | effect on active serine protease band at around 50 kDa labelled by reactivity probe [2] | inhibition of L-BApNA proteolytic activity of OPAL B filtrate [3] | inhibition of cysteine protease activity of OPAL A [4] | activity of pure latex papain [5]
NCCc1ccc(S(=O)(=O)F)cc1 [AEBSF] | inhibition of lower band | inhibited | able to halt proteolytic activity |  | 
CC(C)C[C@H](NC(=O)[C@H]1C[C@@H]1C(=O)O)C(=O)NCCCCNC(=N)N [E-64, (1S,2S)-2-(((S)-1-((4-Guanidinobutyl)amino)-4-methyl-1-oxopentan-2-yl)carbamoyl) cyclopropane carboxylic acid] | complete inhibition of upper band |  | did not result in complete inhibition of activity; also recorded: able to halt proteolytic activity | essentially abolished | 
B1 |  |  |  |  | around 10 IU/mg
